Data taken from publication PMC8579695, “The Stringent Response Inhibits 70S Ribosome Formation in Staphylococcus aureus by Impeding GTPase-Ribosome Interactions” (mBio, 2021).

Assays:
[1] = molecular target: Era association to the 30S ribosomal subunit (Staphylococcus aureus, UniProt Q2FGF6); assay: In vitro ribosome association assay (sucrose gradient, α-His Western immunoblot), Era; type: binding; conditions: 40 μM nucleotide; compared to apo, GTP, or GMPPNP-bound states
Description: (§1) It is well characterized that rRNA transcription decreases during the stringent response ([39]). In addition, the GTPase activity of ribosome assembly cofactors is inhibited by (p)ppGpp, both of which contribute to a reduction in mature ribosomes within the cell ([27]). To examine mechanistically how (p)ppGpp-GTPase interactions affect the ability of RA-GTPases to associate with ribosomal subunits, we examined the association of each GTPase to either the 30S or 50S ribosomal subunit in the presence of GDP, GTP, ppGpp, and pppGpp, as well as GMPPNP, a nonhydrolyzable analogue of GTP. The production and isolation of immature subunits, which can comprise several different immature states, introduces a large degree of heterogeneity, and so here we, and others, use homogenous mature particles as a system to examine the binding event, rather than the role of GTPase activity in downstream maturation ([11], [12], [29], [40], [41]). His-tagged GTPases were preincubated with highly pure, salt-washed 70S S. aureus ribosomes in a low-magnesium buffer to encourage ribosomal subunit dissociation, and the amount of each GTPase associated with each of the subunits was quantified by Western immunoblotting with anti-His antibodies after sucrose gradient separation. […]
(§2) FIG 2 (p)ppGpp and GDP binding reduces RA-GTPase association to the ribosome. […] After subunit separation and precipitation, bound proteins were detected in the 30S fraction using HRP-conjugated α-His antibodies. […] Bound proteins were detected in the 50S fraction using HRP-conjugated α-His antibodies. […]
(§3) A 500 nM concentration of recombinant 6×His-tagged RA-GTPase was incubated at room temperature for 5 min with 200 nM S. aureus 70S ribosomes in dissociation buffer (20 mM Tris [pH 7.5], 120 mM NH4Cl, 1.5 mM MgCl2, 2 mM β-mercaptoethanol) in the apo form and in the presence of 40 μM GTP, GMPPNP, GDP, ppGpp, or pppGpp. […] Gradients were fractionated by upward displacement of 250-μl aliquots, which were analyzed for RNA content at an absorbance of 260 nm. […]

[2] = tested on: HflX association to the 30S and 50S ribosomal subunits; assay: In vitro ribosome association assay (sucrose gradient, α-His Western immunoblot), HflX; type: binding, Staphylococcus aureus; conditions: 40 μM nucleotide; compared to apo, GTP, or GMPPNP-bound states
Description: as §1, §2, §3

Sequence of Era association to the 30S ribosomal subunit (Q2FGF6 whole entry): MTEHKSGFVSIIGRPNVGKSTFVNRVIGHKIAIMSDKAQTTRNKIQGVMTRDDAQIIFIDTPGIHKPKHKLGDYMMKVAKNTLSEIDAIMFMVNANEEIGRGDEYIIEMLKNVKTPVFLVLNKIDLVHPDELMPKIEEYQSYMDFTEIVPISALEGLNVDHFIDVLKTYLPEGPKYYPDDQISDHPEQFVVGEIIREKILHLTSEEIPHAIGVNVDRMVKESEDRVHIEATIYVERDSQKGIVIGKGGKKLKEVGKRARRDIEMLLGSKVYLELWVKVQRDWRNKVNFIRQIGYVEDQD

SMILES | reduction in ribosome binding of Era [1] [fold] | reduction in ribosome binding of HflX [2] [fold]
Nc1nc2c(ncn2[C@@H]2O[C@H](COP(=O)(O)OP(=O)(O)O)[C@@H](OP(=O)(O)OP(=O)(O)O)[C@H]2O)c(=O)[nH]1 [ppGpp] | 2 | 2
Nc1nc2c(ncn2[C@@H]2O[C@H](COP(=O)(O)OP(=O)(O)OP(=O)(O)O)[C@@H](OP(=O)(O)OP(=O)(O)O)[C@H]2O)c(=O)[nH]1 [pppGpp] | 2 | 2
